# Experimental data taken from patent publication US20240150365A1 (Hotspot Therapeutics, Inc., priority 2022, published 2024).
# Like-named read-outs stand apart in the source and are kept apart here.
# Tests used:
# NF-kB = NF-kB reporter assay in Jurkat cells stimulated with aCD3/aCD28/PMA; format: cell-based; settings: Homo sapiens, Jurkat, read-out: NF-kB Reporter Assay IC50
# Outline: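 Jurkat cells (25,000/well, serum-free RPMI 1640) preincubated 1 hr at 37° C with serially diluted compound, then stimulated with aCD3/aCD28/PMA (final 5 μg/mL, 5 μg/mL, 0.03 μg/mL) for 4 hr. Reporter luminescence read with One-Glo; IC50 derived.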
# MALT1 = molecular target: T1, MALT1 (Homo sapiens, UniProt Q9UDY8); assay: MALT-1 Fluorogenic Peptide Cleavage Assay (MALT1 inhibition assay); format: biochemical; settings: Avi-tagged FL MALT-1, Ac-LRSR-AMC peptide substrate, 30 min pre-incubation, 90 min reaction
# T1 construct: Avi-tagged FL MALT-1 (Pharmaron, stored at −70° C.); Avi tag
# T1 sequence (Q9UDY8 1-824): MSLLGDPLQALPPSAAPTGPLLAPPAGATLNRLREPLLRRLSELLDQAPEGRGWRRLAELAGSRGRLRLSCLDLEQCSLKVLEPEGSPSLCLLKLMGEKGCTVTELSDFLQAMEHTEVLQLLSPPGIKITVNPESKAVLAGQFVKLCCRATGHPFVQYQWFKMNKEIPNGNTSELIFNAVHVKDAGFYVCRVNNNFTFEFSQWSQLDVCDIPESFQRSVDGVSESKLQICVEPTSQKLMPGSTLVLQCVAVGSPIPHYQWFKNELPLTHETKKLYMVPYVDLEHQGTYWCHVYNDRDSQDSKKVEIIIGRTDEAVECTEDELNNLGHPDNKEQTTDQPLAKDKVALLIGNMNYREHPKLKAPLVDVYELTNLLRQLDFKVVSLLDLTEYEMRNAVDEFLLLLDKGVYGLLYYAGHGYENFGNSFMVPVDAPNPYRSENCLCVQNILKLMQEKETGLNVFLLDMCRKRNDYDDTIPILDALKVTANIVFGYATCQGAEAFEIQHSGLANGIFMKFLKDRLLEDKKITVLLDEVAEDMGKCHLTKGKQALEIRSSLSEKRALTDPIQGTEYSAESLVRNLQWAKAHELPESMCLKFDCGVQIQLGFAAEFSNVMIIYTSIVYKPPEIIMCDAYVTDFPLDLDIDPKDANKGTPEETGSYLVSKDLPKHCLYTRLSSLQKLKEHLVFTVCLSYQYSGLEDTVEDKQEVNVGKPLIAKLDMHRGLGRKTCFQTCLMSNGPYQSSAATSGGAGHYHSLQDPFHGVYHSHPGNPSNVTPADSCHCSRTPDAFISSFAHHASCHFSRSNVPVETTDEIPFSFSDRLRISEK
# Outline: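 Avi-tagged full-length MALT1 pre-incubated 30 min with compound (2% DMSO final), then cleavage of Ac-LRSR-AMC followed over 90 min at room temperature. AMC fluorescence read at 342/441 nm; % inhibition fitted to sigmoidal curves for IC50.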
# [1] = Jurkat cells, 1 hr compound incubation, aCD3/aCD28/PMA stimulation 4 hr, One-Glo readout
SMILES,IC50 (NF-kB; [1]) [nM],IC50 (MALT1) [nM],IC50 (NF-kB) [nM]
"COCCn1ncc2cccc(NS(=O)(=O)c3ccc(-n4ccc(C(C)C)n4)nc3)c21 [Example I-215, 6-(3-isopropyl-1H-pyrazol-1-yl)-N-(1-(2-methoxyethyl)-1H-indazol-7-yl)pyridine-3-sulfonamide]",> 2500,> 2500,–
"COCCn1ncc2cccc(NS(=O)(=O)c3ccc(-n4nccc4C4CC4)nc3)c21 [Example I-216, 6-(5-Cyclopropyl-1H-Pyrazol-1-yl)-N-(1-(2-Methoxyethyl)-1H-Indazol-7-yl)Pyridine-3-Sulfonamide]",> 2500,> 2500,–
"COCCn1ncc2cccc(NS(=O)(=O)c3ccc(-n4cc(C)cn4)nc3)c21 [Example I-217, N-(1-(2-Methoxyethyl)-1H-Indazol-7-yl)-6-(4-Methyl-1H-Pyrazol-1-yl)Pyridine-3-Sulfonamide]",> 2500,> 2500,–
"COCCn1ncc2cccc(NS(=O)(=O)c3ccc(-c4cnn(C)c4C)nc3)c21 [Example I-218, 6-(1,5-Dimethyl-1H-Pyrazol-4-yl)-N-(1-(2-Methoxyethyl)-1H-Indazol-7-yl)Pyridine-3-Sulfonamide]",> 2500,> 2500,–
"Cn1ncc2cccc(NS(=O)(=O)c3ccc(-c4cccnc4Cl)nc3)c21 [Example I-220, 2′-Chloro-N-(1-Methyl-1H-Indazol-7-yl)-[2,3′-Bipyridine]-5-Sulfonamide]",400 to 1000,> 2500,–
"CN(C)c1ncccc1-c1ccc(S(=O)(=O)Nc2cccc3cnn(C)c23)cn1 [Example I-221, 2′-(Dimethylamino)-N-(1-Methyl-1H-Indazol-7-yl)-[2,3′-Bipyridine]-5-Sulfonamide]",–,> 2500,1000 to 2500
"Cn1cc(-c2ccc(S(=O)(=O)Nc3cccc4cnn(C)c34)cn2)nc1C(F)(F)F [Example I-228, N-(1-Methyl-1H-Indazol-7-yl)-6-(1-Methyl-2-(Trifluoromethyl)-1H-Imidazol-4-yl)Pyridine-3-Sulfonamide]",< 400,1000 to 2500,–
"[2H]C([2H])([2H])n1ncc2ccc(OC)c(NS(=O)(=O)c3ccc(-n4cc(C5CC5)cn4)nc3)c21 [Example I-229, 6-(4-Cyclopropyl-1H-Pyrazol-1-yl)-N-(6-Methoxy-1-(Methyl-D3)-1H-Indazol-7-yl)Pyridine-3-Sulfonamide]",< 400,< 400,–
"Cn1ncc2cccc(NS(=O)(=O)c3ccc(N4CCOC4=O)nc3)c21 [Example I-230, N-(1-Methyl-1H-Indazol-7-yl)-6-(2-Oxooxazolidin-3-yl)Pyridine-3-Sulfonamide]",> 2500,> 2500,–
"COCCn1ncc2cccc(NS(=O)(=O)c3ccc(-n4ccc(C5CC5)n4)nc3)c21 [Example I-231, 6-(3-Cyclopropyl-1H-Pyrazol-1-yl)-N-(1-(2-Methoxyethyl)-1H-Indazol-7-yl)Pyridine-3-Sulfonamide]",> 2500,> 2500,–
"COCCn1ncc2cccc(NS(=O)(=O)c3ccc(-n4nccc4C(C)C)nc3)c21 [Example I-232, 6-(5-isopropyl-1H-pyrazol-1-yl)-N-(1-(2-methoxyethyl)-1H-indazol-7-yl)pyridine-3-sulfonamide]",> 2500,> 2500,–
"Cn1ncc2cccc(NS(=O)(=O)c3ccc(-n4cc5c(n4)CCCC5)nc3)c21 [Example I-233, N-(1-methyl-1H-indazol-7-yl)-6-(4,5,6,7-tetrahydro-2H-indazol-2-yl)pyridine-3-sulfonamide]",< 400,400 to 1000,–
"Cn1c(-c2ccc(S(=O)(=O)Nc3cccc4cnn(C)c34)cn2)cnc1C(F)(F)F [Example I-234, 6-[3-methyl-2-(trifluoromethyl)imidazol-4-yl]-N-(1-methylindazol-7-yl)pyridine-3-sulfonamide]",–,> 2500,< 400
"COc1ncc2cnn(C)c2c1NS(=O)(=O)c1ccc(N2C[C@@](O)(C(F)(F)F)CC2=O)nc1 [Example I-235, (R)-6-(4-hydroxy-2-oxo-4-(trifluoromethyl)pyrrolidin-1-yl)-N-(6-methoxy-1-methyl-1H-pyrazolo[4,3-c]pyridin-7-yl)pyridine-3-sulfonamide]",400 to 1000,< 400,–
"COc1ncc2cnn(C)c2c1NS(=O)(=O)c1ccc(N2C[C@](O)(C(F)(F)F)CC2=O)nc1 [Example I-236, (S)-6-(4-hydroxy-2-oxo-4-(trifluoromethyl)pyrrolidin-1-yl)-N-(6-methoxy-1-methyl-1H-pyrazolo[4,3-c]pyridin-7-yl)pyridine-3-sulfonamide]",> 2500,400 to 1000,–

# The next lines start with results.
IC50 (NF-kB; [1]) [nM],IC50 (MALT1) [nM],SMILES,IC50 (NF-kB) [nM]
< 400,< 400,"[2H]C([2H])([2H])n1ncc2ccc(OC)c(NS(=O)(=O)c3ccc(-n4cc(Cl)cn4)nc3)c21 [Example I-212, 6-(4-Chloro-1H-Pyrazol-1-yl)-N-(6-Methoxy-1-(Methyl-D3)-1H-Indazol-7-yl)Pyridine-3-Sulfonamide]",–
< 400,< 400,"[2H]C([2H])([2H])Oc1ccc2cnn(C)c2c1NS(=O)(=O)c1ccc(-n2cc(Cl)cn2)nc1 [Example I-213, 6-(4-Chloro-1H-Pyrazol-1-yl)-N-(6-(Methoxy-D3)-1-Methyl-1H-Indazol-7-yl)Pyridine-3-Sulfonamide]",–
< 400,400 to 1000,"Cn1ncc2cccc(NS(=O)(=O)c3ccc(-c4cnc(C(F)(F)F)s4)nc3)c21 [Example I-214, N-(1-Methyl-1H-Indazol-7-yl)-6-(2-(Trifluoromethyl)Thiazol-5-yl)Pyridine-3-Sulfonamide]",–
< 400,> 2500,"Cn1ncc2cccc(NS(=O)(=O)c3ccc(-c4ccc(Cl)nc4)nc3)c21 [Example I-219, 6′-Chloro-N-(1-Methyl-1H-Indazol-7-yl)-[2,3′-Bipyridine]-5-Sulfonamide]",–
< 400,> 2500,"COc1ccc2cnn(C)c2c1NS(=O)(=O)c1ccc(N2CCOC2=O)nc1 [Example I-222, N-(6-Methoxy-1-Methyl-1H-Indazol-7-yl)-6-(2-Oxooxazolidin-3-yl)Pyridine-3-Sulfonamide]",–
< 400,> 2500,"COc1ccc2cnn(C)c2c1NS(=O)(=O)c1ccc(N2CC(C)(C)OC2=O)nc1 [Example I-223, 6-(5,5-Dimethyl-2-Oxooxazolidin-3-yl)-N-(6-Methoxy-1-Methyl-1H-Indazol-7-yl)Pyridine-3-Sulfonamide]",–
< 400,> 2500,"Cn1ncc2cccc(NS(=O)(=O)c3ccc(N4CC(C)(C)OC4=O)nc3)c21 [Example I-224, 6-(5,5-Dimethyl-2-Oxooxazolidin-3-yl)-N-(1-Methyl-1H-Indazol-7-yl)Pyridine-3-Sulfonamide]",–
< 400,400 to 1000,"COc1ccc2cnn(C)c2c1NS(=O)(=O)c1ccc(N2CCN(C)C2=O)nc1 [Example I-225, N-(6-Methoxy-1-Methyl-1H-Indazol-7-yl)-6-(3-Methyl-2-Oxoimidazolidin-1-yl)Pyridine-3-Sulfonamide]",–
< 400,> 2500,"CN1CCN(c2ccc(S(=O)(=O)Nc3cccc4cnn(C)c34)cn2)C1=O [Example I-226, N-(1-Methyl-1H-Indazol-7-yl)-6-(3-Methyl-2-Oxoimidazolidin-1-yl)Pyridine-3-Sulfonamide]",–
< 400,1000 to 2500,"Cn1ncc2cccc(NS(=O)(=O)c3ccc(-n4ncc5c4CCCC5)nc3)c21 [Example I-227, N-(1-Methyl-1H-Indazol-7-yl)-6-(4,5,6,7-Tetrahydro-1H-Indazol-1-yl)Pyridine-3-Sulfonamide]",–
